The first assay has as its system NO production in BV-2 cells [NO 생성; BV-2 세포]. As to the kind of experiment: Nitric oxide (NO) quantification (nitrite, Griess reaction) in LPS-activated BV-2 cells. The settings on record: 20 μM, LPS 0.2 ㎍/mL, 24 h co-treatment, nitrite by Griess at 540 nm. The class given is cell-based. Background: Griess reagent forms a coloured azo dye with nitrite.
On to “1-t-뷰틸-4-(1-하이드록시에틸)아미노-6-(메틸티오)피라졸로[3,4-d]피리미딘 [화합물 17d]”, for which the “NO (% of LPS)” value is recorded as 93±2 % of LPS.

Still in this assay, the particulars now being: Mus musculus, BV-2, 24 h, 20 μM, LPS 0.2 ㎍/mL, 24 h co-treatment, nitrite by Griess at 540 nm.
On to `CSc1nc(NCCc2ccccc2)c2cn[nH]c2n1` [6c, 4-펜에틸아미노-6-(메틸티오)피라졸로[3,4-d]피리미딘], for which the activity at 20 µM was determined as 91 ± 4%.

As to `CSc1nc(Cl)c2c(-c3ccccc3)nn(-c3ccccc3)c2n1` [화합물 30a, 1-페닐-3-페닐-4-클로로-6-(메틸티오)피라졸로[3,4-d]피리미딘], the activity at 20 µM was determined as 13 ± 18%.

On to `CCCCNc1nc(SC)nc2c1cnn2CCNC(=O)OC(C)(C)C` [화합물 14i, 2-(4-(뷰틸아미노)-6-(메틸티오)-1H-피라졸로[3,4-d]피리미딘-1-일)에틸카바메이트], for which the activity at 20 µM worked out at 54.2 ± 2.3%. The same measure, in the same setting: as for `CSc1nc(N(CCO)CCO)c2cnn(-c3ccccc3)c2n1` [화합물 15i, 1-페닐-4-비스(1-하이드록시에틸)아미노-6-(메틸티오)피라졸로[3,4-d]피리미딘], the figure is 90 ± 3%; as for `CSc1nc(NC(c2ccccc2)c2ccc(Cl)cc2)c2cnn(Cc3ccccc3)c2n1` (centres unmarked) [화합물 16y, 1-벤질-N-((4-클로로페닐)(페닐)메틸)-6-(메틸티오)-1H-피라졸로[3,4-d]피리미딘-4-아민], 41 ± 0.9%; as for `CSc1nc(NCc2ccccc2)c2c(-c3ccccc3)nn(-c3ccccc3)c2n1` [화합물 31a, 1-페닐-3-페닐-4-벤질아미노-6-(메틸티오)피라졸로[3,4-d]피리미딘], 68 ± 28%. Same read-out and setting: the value for `CSc1nc(N2CCCCC2)c2cnn(-c3ccccc3)c2n1` [화합물 15m, 1-페닐-4-피페리디노-6-(메틸티오)피라졸로[3,4-d]피리미딘] was 92 ± 4%; that for `CC(Nc1nc(NCCCO)nc2c1cnn2Cc1ccccc1)c1ccccc1` (centres unmarked) [화합물 24b, 3-(4-(1-페닐에틸아미노)-1-벤질-1H-피라졸로[3,4-d]피리미딘-6-일아미노)프로판-1-올] was 137 ± 5.7%.

In the case of `CS(=O)(=O)c1nc(NC(c2ccccc2)c2ccc(Cl)cc2)c2cnn(-c3ccccc3)c2n1` (centres unmarked) [화합물 23e, N-((4-클로로페닐)(페닐)메틸)-6-(메틸설포닐)-1-페닐-1H-피라졸로[3,4-d]피리미딘-4-아민], the activity at 20 µM was determined as 36 ± 3.6%. The same measure, in the same setting: as for `COc1ccc([C@H](C)Nc2nc(SC)nc3c2cnn3-c2ccccc2)cc1` [화합물 15zc, N-((S)-1-(4-메톡시페닐)에틸)-6-(메틸티오))-1-페닐-1H-피라졸로[3,4-d]피리미딘-4-아민], the figure is 42 ± 0.9%.

Still in this assay, the particulars now being: Mus musculus, BV-2, 24 h, 30 μM, LPS 0.2 ㎍/mL, 24 h co-treatment, nitrite by Griess at 540 nm.
For the molecule `CSc1nc2[nH]ncc2c(=S)[nH]1` [9a, 6-(메틸티오)피라졸로[3,4-d]피리미딘-4-티온], the activity at 30 µM amounted to 98 ± 5.5%. With `CSc1nc(NCc2ccccc2)c2c(I)n[nH]c2n1` [11a, 3-아이오도-4-벤질아미노-6-(메틸티오)피라졸로[3,4-d]피리미딘], the activity at 30 µM was 27 ± 11%. Still for that read-out and setting: the value for `CCOc1nc(SC)nc2[nH]ncc12` [10b, 4-에톡시-6-(메틸티오)피라졸로[3,4-d]피리미딘] was 93 ± 9%.

These data come from patent KR20130112248A, “피라졸로피리미딘 유도체 화합물, 이를 포함하는 산화질소 생성 억제용 조성물 및 뇌신경 질환 예방 및 치료용 약학적 조성물” (한국과학기술연구원, priority 2012, dated 2013).
